Test [1] has as its target Leucine-rich repeat serine/threonine-protein kinase 2 (Homo sapiens, UniProt Q5S007). Kind of test: Inhibition of LRRK2 (unknown origin) at 10 uM relative to control.
In test [2] the target is Protein-tyrosine kinase 2-beta (Homo sapiens) (UniProt Q14289). In words: Inhibition of FAK2 (unknown origin) at 10 uM relative to control.
Test [3] concerns the target Receptor-type tyrosine-protein kinase FLT3 (Homo sapiens) (UniProt P36888). In words: Inhibition of FLT3 (unknown origin) at 10 uM relative to control.
Test [4] has as its target Tyrosine-protein kinase JAK1 (Homo sapiens) (UniProt P23458). Kind of test: Inhibition of JAK1 (unknown origin) at 10 uM relative to control.
For test [5], the target named is Mitogen-activated protein kinase 1 (Homo sapiens) (UniProt P28482). In words: Inhibition of MAPK1 (unknown origin) at 10 uM relative to control.
Test [6] addresses T1, Serine/threonine-protein kinase Chk1 (Homo sapiens) (UniProt O14757).
T1 sequence (whole entry): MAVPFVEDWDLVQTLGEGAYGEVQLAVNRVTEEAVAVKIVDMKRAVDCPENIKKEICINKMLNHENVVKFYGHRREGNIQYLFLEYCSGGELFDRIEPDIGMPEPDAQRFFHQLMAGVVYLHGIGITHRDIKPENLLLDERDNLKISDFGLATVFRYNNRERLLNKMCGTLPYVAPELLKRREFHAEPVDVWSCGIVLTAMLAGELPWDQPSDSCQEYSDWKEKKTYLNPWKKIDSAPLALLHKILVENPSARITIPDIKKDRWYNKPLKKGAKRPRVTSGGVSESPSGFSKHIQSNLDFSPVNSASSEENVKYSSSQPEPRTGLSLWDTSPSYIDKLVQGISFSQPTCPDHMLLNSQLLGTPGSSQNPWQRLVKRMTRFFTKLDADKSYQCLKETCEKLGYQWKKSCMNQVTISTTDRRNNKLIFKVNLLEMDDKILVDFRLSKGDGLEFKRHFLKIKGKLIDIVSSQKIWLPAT
Kind of test: Inhibition of CHK1 (unknown origin) at 10 uM relative to control.

The target in test [7] is Receptor-interacting serine/threonine-protein kinase 2 (Homo sapiens) (UniProt O43353). Kind of test: Inhibition of RIPK2 (unknown origin) at 10 uM relative to control.
In test [8] the target is T2, Aurora kinase A (Homo sapiens) (UniProt O14965).
T2 sequence (whole entry): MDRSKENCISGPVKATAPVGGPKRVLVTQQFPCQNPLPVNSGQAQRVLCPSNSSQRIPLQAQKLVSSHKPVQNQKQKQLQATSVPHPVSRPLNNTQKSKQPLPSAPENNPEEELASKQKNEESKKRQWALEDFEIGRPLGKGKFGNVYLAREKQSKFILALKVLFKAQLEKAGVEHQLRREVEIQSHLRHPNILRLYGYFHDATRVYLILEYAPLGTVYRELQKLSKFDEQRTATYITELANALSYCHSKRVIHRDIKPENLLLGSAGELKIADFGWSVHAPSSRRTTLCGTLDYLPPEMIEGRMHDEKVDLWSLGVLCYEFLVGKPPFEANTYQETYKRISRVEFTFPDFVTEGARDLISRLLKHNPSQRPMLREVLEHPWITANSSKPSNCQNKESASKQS
In words: Inhibition of Aurora A (unknown origin) at 10 uM relative to control.

The target of test [9] is Calcium/calmodulin-dependent protein kinase type II subunit alpha (Homo sapiens) (UniProt Q9UQM7). Kind of test: Inhibition of CAMK2alpha (unknown origin) at 10 uM relative to control.
The target of test [10] is T3, Mitogen-activated protein kinase kinase kinase 7 (Homo sapiens) (UniProt O43318).
T3 sequence (whole entry): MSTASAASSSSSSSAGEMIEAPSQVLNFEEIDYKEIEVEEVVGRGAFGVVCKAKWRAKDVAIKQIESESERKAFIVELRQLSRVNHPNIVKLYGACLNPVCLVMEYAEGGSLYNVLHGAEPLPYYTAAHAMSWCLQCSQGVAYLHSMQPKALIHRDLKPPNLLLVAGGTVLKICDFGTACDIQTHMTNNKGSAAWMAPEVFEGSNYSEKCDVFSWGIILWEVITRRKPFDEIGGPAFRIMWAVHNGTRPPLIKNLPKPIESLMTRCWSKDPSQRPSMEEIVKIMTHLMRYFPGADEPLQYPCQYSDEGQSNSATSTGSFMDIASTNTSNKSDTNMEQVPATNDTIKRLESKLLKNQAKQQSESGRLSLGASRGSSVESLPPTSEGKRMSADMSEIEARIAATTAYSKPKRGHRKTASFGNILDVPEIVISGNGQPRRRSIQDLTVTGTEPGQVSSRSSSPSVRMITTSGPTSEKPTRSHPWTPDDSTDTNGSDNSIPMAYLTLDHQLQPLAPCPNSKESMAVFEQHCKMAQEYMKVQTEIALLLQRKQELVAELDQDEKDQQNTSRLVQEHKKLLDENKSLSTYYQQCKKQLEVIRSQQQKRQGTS
Kind of test: Inhibition of MAP3K7 (unknown origin) at 10 uM relative to control.

Test [11] has as its target Tyrosine-protein kinase Lck (Homo sapiens) (UniProt P06239). Kind of test: Inhibition of LCK (unknown origin) at 10 uM relative to control.
The target of test [12] is Mitogen-activated protein kinase 10 (Homo sapiens) (UniProt P53779). In words: Inhibition of MAPK10 (unknown origin) at 10 uM relative to control.
The target in test [13] is Serine/threonine-protein kinase PLK1 (Homo sapiens) (UniProt P53350). In words: Inhibition of PLK1 (unknown origin) at 10 uM relative to control.
Serine/threonine-protein kinase PLK1 (Homo sapiens), sequence (P53350 whole entry): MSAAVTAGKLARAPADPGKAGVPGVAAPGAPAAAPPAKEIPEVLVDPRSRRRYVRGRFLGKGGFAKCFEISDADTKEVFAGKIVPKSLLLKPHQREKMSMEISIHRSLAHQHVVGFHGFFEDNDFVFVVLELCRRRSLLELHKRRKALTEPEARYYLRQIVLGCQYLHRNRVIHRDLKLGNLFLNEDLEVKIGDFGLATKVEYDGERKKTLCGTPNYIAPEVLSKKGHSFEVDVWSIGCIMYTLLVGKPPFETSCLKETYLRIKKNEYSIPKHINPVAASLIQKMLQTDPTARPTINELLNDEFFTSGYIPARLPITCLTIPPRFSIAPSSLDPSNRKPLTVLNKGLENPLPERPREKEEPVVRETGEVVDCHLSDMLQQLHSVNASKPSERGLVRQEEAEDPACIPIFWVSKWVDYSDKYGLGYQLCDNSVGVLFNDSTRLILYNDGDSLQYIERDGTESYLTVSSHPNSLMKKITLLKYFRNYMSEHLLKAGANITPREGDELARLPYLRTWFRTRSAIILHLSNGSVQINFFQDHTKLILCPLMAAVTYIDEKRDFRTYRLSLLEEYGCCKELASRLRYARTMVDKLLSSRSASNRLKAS

Tyrosine-protein kinase Lck (Homo sapiens), sequence (P06239 2-509 limits assumed): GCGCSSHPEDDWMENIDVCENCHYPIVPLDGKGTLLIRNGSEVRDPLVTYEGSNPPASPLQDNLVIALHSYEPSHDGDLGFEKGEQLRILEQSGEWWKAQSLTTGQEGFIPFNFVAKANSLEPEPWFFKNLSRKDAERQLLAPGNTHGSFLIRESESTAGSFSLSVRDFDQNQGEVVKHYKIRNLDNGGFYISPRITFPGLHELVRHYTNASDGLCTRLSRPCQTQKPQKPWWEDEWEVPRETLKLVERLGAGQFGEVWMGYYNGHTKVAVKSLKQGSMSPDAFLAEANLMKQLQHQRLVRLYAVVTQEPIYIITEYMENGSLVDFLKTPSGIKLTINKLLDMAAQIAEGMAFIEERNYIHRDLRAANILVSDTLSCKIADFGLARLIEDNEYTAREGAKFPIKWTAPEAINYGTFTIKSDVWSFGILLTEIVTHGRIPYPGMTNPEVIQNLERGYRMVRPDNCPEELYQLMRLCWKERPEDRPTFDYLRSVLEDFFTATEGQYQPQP
Calcium/calmodulin-dependent protein kinase type II subunit alpha (Homo sapiens), sequence (Q9UQM7 whole entry): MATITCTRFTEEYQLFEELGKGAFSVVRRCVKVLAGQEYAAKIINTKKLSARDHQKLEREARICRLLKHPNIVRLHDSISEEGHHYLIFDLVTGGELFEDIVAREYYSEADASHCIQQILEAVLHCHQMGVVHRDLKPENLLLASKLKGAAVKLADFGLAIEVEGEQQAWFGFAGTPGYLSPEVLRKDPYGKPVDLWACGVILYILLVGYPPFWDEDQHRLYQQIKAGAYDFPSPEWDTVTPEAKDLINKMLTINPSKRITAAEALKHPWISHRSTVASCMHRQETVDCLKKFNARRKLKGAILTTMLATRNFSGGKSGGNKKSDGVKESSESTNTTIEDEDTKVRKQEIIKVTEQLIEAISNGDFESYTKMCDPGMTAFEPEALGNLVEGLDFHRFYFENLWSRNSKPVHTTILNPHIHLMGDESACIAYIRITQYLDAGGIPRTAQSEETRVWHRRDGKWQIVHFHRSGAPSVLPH
Leucine-rich repeat serine/threonine-protein kinase 2, sequence (Q5S007 whole entry): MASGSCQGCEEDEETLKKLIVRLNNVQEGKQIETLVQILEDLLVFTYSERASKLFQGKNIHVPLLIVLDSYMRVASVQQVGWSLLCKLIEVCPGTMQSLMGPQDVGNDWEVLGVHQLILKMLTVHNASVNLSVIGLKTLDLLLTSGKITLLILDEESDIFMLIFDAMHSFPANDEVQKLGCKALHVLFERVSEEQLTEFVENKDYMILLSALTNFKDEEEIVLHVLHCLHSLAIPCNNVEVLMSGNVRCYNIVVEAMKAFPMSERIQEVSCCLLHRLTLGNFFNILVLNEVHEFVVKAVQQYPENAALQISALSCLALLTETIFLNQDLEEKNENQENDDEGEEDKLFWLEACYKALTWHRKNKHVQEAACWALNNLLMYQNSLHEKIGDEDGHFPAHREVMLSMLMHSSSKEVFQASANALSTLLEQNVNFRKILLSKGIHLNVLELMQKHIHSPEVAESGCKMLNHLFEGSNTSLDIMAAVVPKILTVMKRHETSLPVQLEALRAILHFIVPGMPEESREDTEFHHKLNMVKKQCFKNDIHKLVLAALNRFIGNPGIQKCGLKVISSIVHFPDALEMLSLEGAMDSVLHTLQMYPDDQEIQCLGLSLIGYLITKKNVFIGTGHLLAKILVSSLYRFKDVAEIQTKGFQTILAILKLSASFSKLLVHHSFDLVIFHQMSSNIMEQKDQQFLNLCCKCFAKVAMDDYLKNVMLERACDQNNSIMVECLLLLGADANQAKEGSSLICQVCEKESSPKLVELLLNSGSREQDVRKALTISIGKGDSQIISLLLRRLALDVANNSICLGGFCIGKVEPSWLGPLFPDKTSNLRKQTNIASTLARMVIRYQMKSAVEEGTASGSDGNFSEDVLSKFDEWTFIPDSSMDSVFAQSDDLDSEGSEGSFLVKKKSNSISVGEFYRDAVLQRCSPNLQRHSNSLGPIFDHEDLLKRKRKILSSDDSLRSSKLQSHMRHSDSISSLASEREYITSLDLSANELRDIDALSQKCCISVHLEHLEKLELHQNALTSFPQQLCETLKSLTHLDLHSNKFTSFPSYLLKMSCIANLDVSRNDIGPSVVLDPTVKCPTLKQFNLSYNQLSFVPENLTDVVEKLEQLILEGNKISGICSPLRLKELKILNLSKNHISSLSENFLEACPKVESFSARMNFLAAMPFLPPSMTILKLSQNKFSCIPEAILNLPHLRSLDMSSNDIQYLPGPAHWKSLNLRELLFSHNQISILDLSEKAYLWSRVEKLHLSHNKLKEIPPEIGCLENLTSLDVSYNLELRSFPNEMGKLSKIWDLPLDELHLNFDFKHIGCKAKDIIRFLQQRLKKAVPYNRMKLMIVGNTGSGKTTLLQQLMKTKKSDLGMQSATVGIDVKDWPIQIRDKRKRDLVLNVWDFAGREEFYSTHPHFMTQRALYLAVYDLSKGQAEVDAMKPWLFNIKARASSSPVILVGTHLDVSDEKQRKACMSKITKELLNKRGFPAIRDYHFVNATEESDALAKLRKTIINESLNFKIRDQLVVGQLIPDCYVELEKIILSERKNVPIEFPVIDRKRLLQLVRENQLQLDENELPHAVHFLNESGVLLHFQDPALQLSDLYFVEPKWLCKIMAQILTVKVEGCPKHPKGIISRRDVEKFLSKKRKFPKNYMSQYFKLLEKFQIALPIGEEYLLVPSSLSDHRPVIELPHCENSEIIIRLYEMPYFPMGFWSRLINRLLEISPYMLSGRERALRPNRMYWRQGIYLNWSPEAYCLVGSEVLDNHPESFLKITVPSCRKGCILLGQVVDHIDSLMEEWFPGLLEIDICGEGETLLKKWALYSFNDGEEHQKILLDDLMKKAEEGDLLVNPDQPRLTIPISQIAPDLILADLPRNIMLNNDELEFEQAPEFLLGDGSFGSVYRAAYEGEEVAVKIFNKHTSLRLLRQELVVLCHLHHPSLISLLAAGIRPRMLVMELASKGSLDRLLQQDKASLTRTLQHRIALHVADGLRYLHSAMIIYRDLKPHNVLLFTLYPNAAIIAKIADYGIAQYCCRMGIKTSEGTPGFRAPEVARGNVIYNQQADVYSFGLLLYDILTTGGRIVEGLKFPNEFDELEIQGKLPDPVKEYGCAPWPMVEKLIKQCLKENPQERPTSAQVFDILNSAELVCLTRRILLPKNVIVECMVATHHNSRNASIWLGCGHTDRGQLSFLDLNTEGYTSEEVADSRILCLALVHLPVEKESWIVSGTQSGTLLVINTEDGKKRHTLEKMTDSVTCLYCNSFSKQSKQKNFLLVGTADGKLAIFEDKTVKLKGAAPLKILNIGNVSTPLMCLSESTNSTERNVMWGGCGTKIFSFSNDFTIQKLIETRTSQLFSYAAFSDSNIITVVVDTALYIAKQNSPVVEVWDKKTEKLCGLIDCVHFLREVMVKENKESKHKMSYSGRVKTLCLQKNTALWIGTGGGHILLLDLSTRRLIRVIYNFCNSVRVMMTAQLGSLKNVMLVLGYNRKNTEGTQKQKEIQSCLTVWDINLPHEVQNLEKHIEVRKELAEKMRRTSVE
Protein-tyrosine kinase 2-beta (Homo sapiens), sequence (Q14289 whole entry, looked up): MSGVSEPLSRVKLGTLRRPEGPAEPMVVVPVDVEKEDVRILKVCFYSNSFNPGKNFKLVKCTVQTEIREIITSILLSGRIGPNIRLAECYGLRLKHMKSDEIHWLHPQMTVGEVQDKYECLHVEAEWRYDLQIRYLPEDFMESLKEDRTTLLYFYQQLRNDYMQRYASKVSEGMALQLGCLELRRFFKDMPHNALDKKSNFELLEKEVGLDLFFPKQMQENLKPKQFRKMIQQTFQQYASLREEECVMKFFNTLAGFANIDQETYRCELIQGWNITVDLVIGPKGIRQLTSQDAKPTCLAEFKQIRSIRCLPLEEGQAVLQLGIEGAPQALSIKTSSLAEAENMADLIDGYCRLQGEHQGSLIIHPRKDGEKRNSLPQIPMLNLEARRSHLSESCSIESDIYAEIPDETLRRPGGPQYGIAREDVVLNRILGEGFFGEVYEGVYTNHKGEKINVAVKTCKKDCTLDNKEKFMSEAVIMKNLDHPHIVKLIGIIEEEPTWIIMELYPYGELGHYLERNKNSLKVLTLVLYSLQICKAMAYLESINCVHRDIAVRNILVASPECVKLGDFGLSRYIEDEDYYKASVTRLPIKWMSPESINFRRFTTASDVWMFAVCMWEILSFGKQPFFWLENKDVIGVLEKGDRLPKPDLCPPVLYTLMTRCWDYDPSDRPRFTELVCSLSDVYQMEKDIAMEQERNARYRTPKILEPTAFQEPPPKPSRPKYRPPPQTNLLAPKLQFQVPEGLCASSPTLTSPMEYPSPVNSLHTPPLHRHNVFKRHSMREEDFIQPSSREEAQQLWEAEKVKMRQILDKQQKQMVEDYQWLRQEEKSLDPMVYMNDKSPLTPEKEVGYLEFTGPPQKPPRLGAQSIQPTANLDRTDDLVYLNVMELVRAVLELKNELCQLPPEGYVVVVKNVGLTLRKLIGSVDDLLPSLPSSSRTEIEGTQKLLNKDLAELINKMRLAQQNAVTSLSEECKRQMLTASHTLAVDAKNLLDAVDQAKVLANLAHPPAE

In general, inhibition refers to the change of the read-out against control, counted positive when it falls. For the compound `CS(=O)(=O)c1ccc(-c2ccc3c(NC4CCC4)c(C(N)=O)nnc3c2)cc1`, the inhibition in [1] came out at 97%; in [2], 28%; in test [3], 72%; in [4], 55%; in test [5], 3%; in test [6] it was 82%. Further, the inhibition in test [7] worked out at 15%; in test [8] it was 34%; in [9], 11%; in test [10], 66%; in test [11] it was 35%; in [12] it was 21%. Also, the inhibition in [13] is 14%.
In the case of `CC(C)Nc1c(C(N)=O)nnc2ccc(-c3cn[nH]c3)cc12`, the inhibition in [1] worked out at 96%; in [2], 70%; in test [3] it was 101%; in [4], 90%; in test [5], 63%; in test [6], 78%. The inhibition stood at 98% in test [7]; 100% in test [8]; 92% in test [9]; 97% in [10]; 94% in test [11]; 93% in test [12]. The inhibition in [13] came to 45%.
`C[C@@H](Nc1c(C(N)=O)nnc2cc(-c3ccc(S(C)(=O)=O)cc3)ccc12)C1CC1`: the inhibition in test [1] worked out at 97%; in test [2] it was 24%; in test [3], 80%; in test [4] it was 74%; in [6], 54%; in test [7] it was 28%. Further, the inhibition in [8] turned out to be 68%; in test [9] it was 15%; in test [10] it was 39%; in test [11], 81%; in [12] it was 21%; in [13] it was 1%.
`CC(C)Nc1c(C(N)=O)cnc2cc(-c3ccc(S(C)(=O)=O)cc3)ccc12`: the inhibition in test [1] amounted to 96%; in test [2], 47%; in test [3] it was 75%; in test [4] it was 77%; in test [5] it was 7%; in test [6], 72%. Further, the inhibition stood at 52% in test [7]; 60% in [8]; 0% in [9]; 89% in test [10]; 31% in [11]; 4% in test [12]. Moreover, the inhibition in test [13] is 1%.
For `CC(C)Nc1c(C(N)=O)nnc2cc(N3CCOCC3)ccc12`, the inhibition in [1] is 99%; in [2], 39%; in test [3] it was 99%; in test [4] it was 72%; in [5], -5%; in test [6], 93%. Besides, the inhibition in [7] came to 44%; in test [8], 81%; in test [9], 17%; in test [10] it was 67%; in [11], 75%; in [12] it was 17%. For the same compound, the inhibition in [13] came out at 3%.
Regarding `CC(C)Nc1c(C(N)=O)nnc2ccc(-c3ccncc3)cc12`, the inhibition in test [1] came out at 95%; in test [2], 26%; in [3], 102%; in test [4] it was 33%; in test [5] it was 26%; in test [6], 66%. Moreover, the inhibition in [7] came out at 91%; in test [8], 83%; in [9] it was 77%; in [10] it was 84%; in [11] it was 90%; in [12], 88%. Moreover, the inhibition in test [13] stood at 25%.
As for `CC(C)Nc1c(C(N)=O)nnc2cc(-c3ccncc3)ccc12`, the inhibition in test [2] came to 78%; in [3], 96%; in test [4], 96%; in [5], 23%; in [6], 95%; in [7] it was 76%. Besides, the inhibition in test [8] was 90%; in [9], 14%; in test [10], 102%; in [11], 85%; in test [12], 81%; in test [13], 33%.
